Experimental findings from patent US9322022B2, “Inhibition of DNA2 in fanconi anemia” (California Institute of Technology, priority 2013, dated 2016) are described below.

Test [1] deals with PD20 FANCD2−/− cells complemented with wild-type FANCD2. The experiment in a line: Clonogenic assay for cisplatin sensitivity. It counts as cell-based, human. As for the experimental part:
(§1) The genetic interaction between FANCD2 and DNA2 was examined in the repair of cisplatin- or formaldehyde-induced damage. Using PD20 FANCD2^−/− cells complemented with wild-type FANCD2 or an empty vector, DNA2 was depleted using shRNA techniques (FIG. 2A). As shown, DNA2 was reduced to levels undetectable by western blotting. The cell lines were exposed to cisplatin, and a clonogenic assay was performed (FIG. 2B). […] This rescue is stronger than previously reported, consistent with lower residual DNA2 levels detected by western blotting in the knockdowns (Karanja et al., 2012, Cell Cycle, 11:3983-3996, the entire contents of which are herein incorporated by reference.)
(§2) For acute exposure, formaldehyde (0, 40, 80, 160, 320 μM) was added for 4 h in PBS. Cells were washed in PBS and grown for 5 days. For chronic exposure, cells were continuously grown in formaldehyde (0, 30, 60, 90, 120 μM) for 6 days. To determine viability, cells were fixed and stained with crystal violet and scanned with a Licor Odyssey scanner (LiCor Biosciences). The surviving fraction was determined by comparing treated with the non-treated controls. […] Surviving fraction was determined by comparing treated with the non-treated controls.

Test [2] deals with PD20 FANCD2−/− cells. Briefly: Clonogenic assay for cisplatin sensitivity. The test is classed as cell-based, human. Particulars: FANCD2−/− cells (empty vector). As for the experimental part: as §1, §2

As for `N.N.[Cl][Pt][Cl]` [cisplatin], the “sensitivity of cells to cisplatin (clonogenic survival)” value is recorded as “resistant” in test [1] and “very sensitive” in test [2].
